Series [1] relates to Myzus persicae (Green peach aphid). Kind of series: Myzus persicae test, roots of infested pea seedlings placed in test solution. In kind it is in vivo. The conditions noted are these: 144 h, read-out: control of Myzus persicae. Here is the method: (§1) This Example illustrates the pesticidal/insecticidal properties of compounds of formula (I). The compounds numbers are those of the characterising data tables. Test against were performed as follows:
Myzus persicae (Green peach aphid): Roots of pea seedlings, infested with an aphid population of mixed ages, were placed directly in the test solutions of 24 ppm. 6 days after introduction, samples were checked for mortality.

The test system is the same in series [2]. The series can be described thus: Myzus persicae sunflower leaf disc spray test. The conditions noted are these: foliar, 144 h, read-out: control of Myzus persicae. The format is in vivo. How it is done: as §1
Heliothis virescens (Tobacco budworm): Eggs (0-24 h old) were placed in 24-well microtiter plate on artificial diet and treated with test solutions at an application rate of 200 ppm by pipetting. After an incubation period of 4 days, samples were checked for egg mortality, larval mortality, and growth regulation. The following compounds gave at least 80% control of Heliothis virescens: 1.004, 1.005, 1.012, 1.016, 4.001, 31.016, 31.018. Myzus persicae (Green peach aphid): Sunflower leaf discs were placed on agar in a 24-well microtiter plate and sprayed with test solutions at an application rate of 200 ppm. After drying, the leaf discs were infested with an aphid population of mixed ages. After an incubation period of 6 DAT, samples were checked for mortality.

The mark [3] stands for this setting: roots of pea seedlings in test solutions of 24 ppm, mixed ages, mortality after 6 days.
[4] abbreviates: sunflower leaf discs sprayed at 200 ppm, mixed ages, mortality at 6 DAT.

SMILES strings stand for the structures. Where two headings read alike, the source gives them in different places.

The values below come from US20100280085A1, “CHEMICAL COMPOUNDS” (SYNGENTA CROP PROTECTION, INC., priority 2006, published 2010).

Usually melting point stands for the temperature, or range, at which the solid turns liquid. On to `COc1ccc2c(c1)CCC2NC1=NCCO1` (stereo not drawn), for which the melting point lay in the range of 115 to 118 °C.

With `COc1cc2c(cc1OC)C(NC1=NCCO1)CC2` (stereo not drawn), the melting point lay in the range of 109 to 113 °C.

On to `c1ccc(C2CC(NC3=NCCO3)c3ccccc32)cc1` (stereo not drawn), for which the melting point was > 120 °C (dec.).

As for `O=C(NCCCl)NC1CCc2ccccc21` (racemic) [Compound 31.017], the pest or weed control at 24 ppm in series [1] was ≥ 80%. In addition, the pest or weed control at 200 ppm in series [2] was ≥ 80%.

The molecule `OC1Cc2ccccc2C1NC1=NCCO1` (stereo not drawn) [1.013] showed a melting point of 139 to 141 °C.

With `OC1Cc2ccccc2C1NC1=NCCO1` (stereo not drawn) [1.014], the melting point was 140 to 142 °C.

Consider `CC1Cc2ccccc2C1NC1=NCCO1` (stereo not drawn) [Compound 1.001], for which the pest or weed control at 24 ppm in series [1] (setting [3]) was ≥ 80%.

Regarding `CC1CC(NC2=NCCO2)c2ccccc21` (stereo not drawn) [Compound 1.002], the pest or weed control at 24 ppm in series [1] (setting [3]) was ≥ 80%. In addition, in series [2] (setting [4]), the pest or weed control at 200 ppm is ≥ 80%.

For the molecule `Cc1cccc2c1CCC2NC1=NCCO1` (stereo not drawn) [Compound 1.004], the pest or weed control at 24 ppm in series [1] (setting [3]) is ≥ 80%. Besides, in series [2] (setting [4]), the pest or weed control at 200 ppm was ≥ 80%.

Turning to `Fc1ccc2c(c1)CCC2NC1=NCCO1` (stereo not drawn) [Compound 1.005], the pest or weed control at 200 ppm in series [2] (setting [4]) is ≥ 80%.

Consider `Brc1ccc2c(c1)CCC2NC1=NCCO1` (stereo not drawn) [Compound 1.006], for which the pest or weed control at 200 ppm in series [2] (setting [4]) is ≥ 80%.

In the case of `Clc1ccc2c(c1)CCC2NC1=NCCO1` (stereo not drawn) [Compound 1.007], the pest or weed control at 200 ppm in series [2] (setting [4]) was ≥ 80%.

For the molecule `COc1ccc2c(c1)C(NC1=NCCO1)CC2` (stereo not drawn) [Compound 1.009], the pest or weed control at 200 ppm in series [2] (setting [4]) was ≥ 80%.

Consider `Cc1ccc2c(c1)CCC2NC1=NCCO1` (stereo not drawn) [Compound 1.010], for which the pest or weed control at 24 ppm in series [1] (setting [3]) is ≥ 80%. Further, in series [2] (setting [4]), the pest or weed control at 200 ppm is ≥ 80%.

For `Cc1ccc2c(c1)C(NC1=NCCO1)CC2` (stereo not drawn) [Compound 1.012, (4,5-Dihydro-oxazol-2-yl)-(6-methyl-indan-1-yl)-amine], in series [1] (setting [3]), the pest or weed control at 24 ppm was ≥ 80%. Moreover, the pest or weed control at 200 ppm in series [2] (setting [4]) is ≥ 80%.

`CC1Cc2ccccc2C1NC1=NCCO1` (stereo not drawn) [Compound 1.015]: in series [2] (setting [4]), the pest or weed control at 200 ppm is ≥ 80%.

Regarding `Fc1cccc2c1CCC2NC1=NCCO1` (stereo not drawn) [Compound 1.016], the pest or weed control at 24 ppm in series [1] (setting [3]) was ≥ 80%. Besides, in series [2] (setting [4]), the pest or weed control at 200 ppm is ≥ 80%.

With `c1ccc2c(c1)CCC2NC1=NCCO1` (stereo not drawn) [Compound 1.017], the pest or weed control at 24 ppm in series [1] (setting [3]) is ≥ 80%. In addition, the pest or weed control at 200 ppm in series [2] (setting [4]) was ≥ 80%.

As to `CC1Cc2ccccc2C1NC(=O)NCCCl` (stereo not drawn) [Compound 31.001], the pest or weed control at 24 ppm in series [1] is ≥ 80%. The pest or weed control at 200 ppm in series [2] was ≥ 80%.

`CC1CC(NC(=O)NCCCl)c2ccccc21` (stereo not drawn) [Compound 31.002]: the pest or weed control at 24 ppm in series [1] is ≥ 80%. For the same molecule, the pest or weed control at 200 ppm in series [2] was ≥ 80%.

`O=C(NCCCl)NC1CCc2c(F)cccc21` (stereo not drawn) [Compound 31.016]: in series [1], the pest or weed control at 24 ppm was ≥ 80%. The pest or weed control at 200 ppm in series [2] was ≥ 80%.

Regarding `O=C(NCCCl)NC1CCc2ccccc21` (stereo not drawn) [Compound 31.018], in series [1], the pest or weed control at 24 ppm is ≥ 80%. The pest or weed control at 200 ppm in series [2] is ≥ 80%.
